Assays:
[1] = human gut metagenome, 24 h, 2 µM
[2] = The drug is tested on Z-020 corresponding to rabbit gut metagenome with ENA study accession number: PRJEB37062 and ENA sample accession number: ERS12561819 for biotransformation under anaerobic condition. The drug concentrations were measured over 9 timepoints collected between 0 and 24 hours of incubation by liquid-chromatography-coupled mass spectrometry (LC–MS); details: 2 µM
[3] = The drug is tested on WLS-082 corresponding to human gut metagenome with ENA study accession number: PRJEB37062 and ENA sample accession number: ERS12561751 for biotransformation under anaerobic condition. The drug concentrations were measured over 9 timepoints collected between 0 and 24 hours of incubation by liquid-chromatography-coupled mass spectrometry (LC–MS); details: 2 µM
[4] = The drug is tested on Z-028 corresponding to mouse gut metagenome with ENA study accession number: PRJEB37062 and ENA sample accession number: ERS12561827 for biotransformation under anaerobic condition. The drug concentrations were measured over 9 timepoints collected between 0 and 24 hours of incubation by liquid-chromatography-coupled mass spectrometry (LC–MS); details: 2 µM
[5] = The drug is tested on Z-001 corresponding to mouse gut metagenome with ENA study accession number: PRJEB37062 and ENA sample accession number: ERS12561801 for biotransformation under anaerobic condition. The drug concentrations were measured over 9 timepoints collected between 0 and 24 hours of incubation by liquid-chromatography-coupled mass spectrometry (LC–MS); details: 2 µM
[6] = The drug is tested on Z-018 corresponding to pig gut metagenome with ENA study accession number: PRJEB37062 and ENA sample accession number: ERS12561817 for biotransformation under anaerobic condition. The drug concentrations were measured over 9 timepoints collected between 0 and 24 hours of incubation by liquid-chromatography-coupled mass spectrometry (LC–MS); details: 2 µM
[7] = The drug is tested on WLS-052 corresponding to human gut metagenome with ENA study accession number: PRJEB37062 and ENA sample accession number: ERS12561747 for biotransformation under anaerobic condition. The drug concentrations were measured over 9 timepoints collected between 0 and 24 hours of incubation by liquid-chromatography-coupled mass spectrometry (LC–MS); details: 2 µM
[8] = human gut metagenome, 24 h, 2 µM; remark: listed apart in the source
[9] = human gut metagenome, 24 h, 2 µM; remark: listed apart in the source
[10] = human gut metagenome, 24 h, 2 µM; remark: listed apart in the source
[11] = The drug is tested on WLS-010 corresponding to human gut metagenome with ENA study accession number: PRJEB37062 and ENA sample accession number: ERS12561743 for biotransformation under anaerobic condition. The drug concentrations were measured over 9 timepoints collected between 0 and 24 hours of incubation by liquid-chromatography-coupled mass spectrometry (LC–MS); details: 2 µM
[12] = The drug is tested on WLS-220 corresponding to human gut metagenome with ENA study accession number: PRJEB37062 and ENA sample accession number: ERS12561769 for biotransformation under anaerobic condition. The drug concentrations were measured over 9 timepoints collected between 0 and 24 hours of incubation by liquid-chromatography-coupled mass spectrometry (LC–MS); details: 2 µM
[13] = The drug is tested on WLS-069 corresponding to human gut metagenome with ENA study accession number: PRJEB37062 and ENA sample accession number: ERS12561748 for biotransformation under anaerobic condition. The drug concentrations were measured over 9 timepoints collected between 0 and 24 hours of incubation by liquid-chromatography-coupled mass spectrometry (LC–MS); details: 2 µM
[14] = human gut metagenome, 24 h, 2 µM; remark: listed apart in the source
[15] = The drug is tested on Z-029 corresponding to rat gut metagenome with ENA study accession number: PRJEB37062 and ENA sample accession number: ERS12561828 for biotransformation under anaerobic condition. The drug concentrations were measured over 9 timepoints collected between 0 and 24 hours of incubation by liquid-chromatography-coupled mass spectrometry (LC–MS); details: 2 µM
[16] = human gut metagenome, 24 h, 2 µM; remark: listed apart in the source
[17] = The drug is tested on Z-011 corresponding to mouse gut metagenome with ENA study accession number: PRJEB37062 and ENA sample accession number: ERS12561811 for biotransformation under anaerobic condition. The drug concentrations were measured over 9 timepoints collected between 0 and 24 hours of incubation by liquid-chromatography-coupled mass spectrometry (LC–MS); details: 2 µM
[18] = The drug is tested on Z-012 corresponding to metagenome with ENA study accession number: PRJEB37062 and ENA sample accession number: ERS12561812 for biotransformation under anaerobic condition. The drug concentrations were measured over 9 timepoints collected between 0 and 24 hours of incubation by liquid-chromatography-coupled mass spectrometry (LC–MS); details: 2 µM
[19] = The drug is tested on Z-024 corresponding to pig gut metagenome with ENA study accession number: PRJEB37062 and ENA sample accession number: ERS12561823 for biotransformation under anaerobic condition. The drug concentrations were measured over 9 timepoints collected between 0 and 24 hours of incubation by liquid-chromatography-coupled mass spectrometry (LC–MS); details: 2 µM
[20] = human gut metagenome, 24 h, 2 µM; remark: listed apart in the source
Note: call rule not given here.

Row | SMILES | Bacterial Biotransformation [1] | Bacterial Biotransformation [2] | Bacterial Biotransformation [3] | Bacterial Biotransformation [4] | Bacterial Biotransformation [5] | Bacterial Biotransformation [6] | Bacterial Biotransformation [7] | Bacterial Biotransformation [8] | Bacterial Biotransformation [9] | Bacterial Biotransformation [10] | Bacterial Biotransformation [11] | Bacterial Biotransformation [12] | Bacterial Biotransformation [13] | Bacterial Biotransformation [14] | Bacterial Biotransformation [15] | Bacterial Biotransformation [16] | Bacterial Biotransformation [17] | Bacterial Biotransformation [18] | Bacterial Biotransformation [19] | Bacterial Biotransformation [20]
1 | O=C(O)COCCN1CCN(C(c2ccccc2)c2ccc(Cl)cc2)CC1 (stereo not given) [CETIRIZINE] | Compound metabolized | Compound NOT metabolized | Compound metabolized | Compound NOT metabolized | Compound NOT metabolized | Compound NOT metabolized | Compound metabolized | Compound metabolized | Compound metabolized | Compound metabolized | Compound metabolized | Compound metabolized | Compound metabolized | Compound metabolized | Compound NOT metabolized | Compound metabolized | Compound NOT metabolized | Compound metabolized | Compound metabolized | Compound metabolized
2 | CN/C(=N/CCSCc1nc[nH]c1C)NC#N [CIMETIDINE] | Compound metabolized | Compound NOT metabolized | Compound metabolized | Compound NOT metabolized | Compound NOT metabolized | Compound metabolized | Compound NOT metabolized | Compound metabolized | Compound NOT metabolized | Compound metabolized | Compound metabolized | Compound metabolized | Compound metabolized | Compound metabolized | Compound NOT metabolized | Compound NOT metabolized | Compound NOT metabolized | Compound metabolized | Compound NOT metabolized | Compound NOT metabolized
3 | Br.CN(C)CCCC1(c2ccc(F)cc2)OCc2cc(C#N)ccc21 (stereo not given) [CITALOPRAM HYDROBROMIDE] | Compound metabolized | Compound NOT metabolized | Compound NOT metabolized | Compound NOT metabolized | Compound NOT metabolized | Compound NOT metabolized | Compound NOT metabolized | Compound metabolized | Compound metabolized | Compound metabolized | Compound NOT metabolized | Compound NOT metabolized | Compound metabolized | Compound NOT metabolized | Compound NOT metabolized | Compound NOT metabolized | Compound metabolized | Compound NOT metabolized | Compound NOT metabolized | Compound NOT metabolized
4 | CN(C)CCC=C1c2ccccc2C=Cc2ccccc21 [CYCLOBENZAPRINE] | Compound metabolized | Compound NOT metabolized | Compound metabolized | Compound NOT metabolized | Compound metabolized | Compound metabolized | Compound metabolized | Compound metabolized | Compound metabolized | Compound metabolized | Compound metabolized | Compound metabolized | Compound metabolized | Compound metabolized | Compound NOT metabolized | Compound NOT metabolized | Compound NOT metabolized | Compound NOT metabolized | Compound metabolized | Compound NOT metabolized
5 | O=C(Nc1ccccc1)OCC(CN1CCCCC1)OC(=O)Nc1ccccc1 (stereo not given) [DIPERODON] | Compound metabolized | Compound NOT metabolized | Compound metabolized | Compound NOT metabolized | Compound NOT metabolized | Compound NOT metabolized | Compound NOT metabolized | Compound metabolized | Compound NOT metabolized | Compound metabolized | Compound metabolized | Compound metabolized | Compound metabolized | Compound NOT metabolized | Compound NOT metabolized | Compound NOT metabolized | Compound NOT metabolized | Compound NOT metabolized | Compound metabolized | Compound NOT metabolized
